Here are results for 2 compounds from patent publication US20100150948A1, “MATERIALS AND METHODS FOR IMPROVED IMMUNOGLYCOPROTEINS” (TRUBION PHARMACEUTICALS, INC., priority 2006, published 2010).

The test system of one experiment is Ramos cells. The experiment is described as follows: Ramos tumor model in nude mice. Format: in vivo. The settings on record: TRU-016 from CHO cells treated with 200 μM DMJ, 10 μM kifenunsine or 200 μM castanospermine; 200 μg i.v. As for the experimental part: Nude mice are administered 5×10^6 Ramos cells subcutaneously on day 0 and injected intravenously with 200 μg control human IgG or TRU-016 test protein produced by CHO cells treated with 200 μM DMJ, 10 μM kifenunsine or 200 μM castanospermine on days 0, 2, 4, 6, and 8. Mice typically develop tumors within 6 days and die shortly thereafter. Tumors are measured three times weekly with digital calipers and LabCat software, and tumor volume is calculated as […]. Body weight is also determined once a week.
Mice are sacrificed when the tumor reaches 1500 mm^3 in size (1200 mm^3 on Fridays). Mice are also sacrificed if ulceration of a tumor occurs, the tumor inhibits the mobility of animal, or if weight loss equals or exceeds 20%.

The test system of another experiment is CD16. The experiment is described as follows: Binding to soluble FcγR-MIg fusion on WIL2-S cells, flow cytometry (allele not stated). As for the experimental part: The immunoglycoproteins produced according to Example 2 were assayed in vitro for binding to soluble Ig-fusion versions of Fcγ receptors, in which the extracellular domain of a receptor is fused to murine IgG2a Fc.
The soluble Fey receptor materials were generated by fusing the extracellular domain of Fcγ Receptors I (Genbank Acc. No. BC032634), IIa (Genbank Acc. No. NM_021642), IIb (Genbank Acc. No. BC031992), and III-V158 (high affinity allele) (Genbank Acc. No. X07934) and III-F158 (low affinity allele), respectively, to a murine IgG2a Fc with a Pro to Ser mutation at residue 238 (MIgG2aP238S). For both forms of Fcγ RIII (CD16), an HE4 leader was cloned onto CD16 amino acids 1-178 and then fused to MIgG2aP238S.
The assays were carried out as follows. […] The cells were then incubated with the desired FcγR-MIg fusion in the same diluent at a concentration of 1 μg/ml on ice for 45 minutes.
The complexes (WIL2-S cells/SMIP/FcγR-MIg) were then incubated with PE conjugated AffiniPure F(Ab')2 Goat Anti-Mouse IgG [Jackson Immunoresearch] (a mouse Fc-specific antibody with minimal cross reactivity with human Fc) at a 1:100 dilution. The cells were analyzed by one-color flow cytometry on a FACsCalibur using CellQuest software (Becton Dickinson).
If TRU-016 supernatants from Example 2 were used in this assay instead of purified TRU-016 protein, the SMIP concentration in the supernatant was quantified by direct staining of WIL2-S cells with diluted supernatant along with a TRU-016 standard. TRU-016 was detected by staining with FITC conjugated F(Ab')2 Goat Anti-Human (gamma) [Caltag H10101] at a 1:50 dilution.
(In general: A flow cytometer gives signals particle by particle.)

For the next experiment, the system named is CD37 and FcγRIIIa (CD16). Nature of the experiment: Simultaneous binding of TRU-016 to CD37 and FcγRIIIa (CD16) on Daudi cells. More on the design: species or system human. To be noted: CS 0-800 μM in culture; response up to 400 μM, at which point the binding appears to level off. As for the experimental part: TRU-016 produced as described in Example 8 was tested in the following assay, which simultaneously evaluates the ability of the TRU-016 binding domain to bind to a CD37 expressing target cell and the ability of the Fc portion of the TRU-016 SMIP to bind a fusion protein of human CD16 and murine IgG Fc.
The target cell utilized is the Daudi (ATCC CRL-213) cell line. Daudi cells are a human B-lymphoblastoid cell line derived from a Burkitt's lymphoma and express high levels of CD37. The custom soluble CD16:MuIgGFc fusion protein is human CD16 (low affinity polymorphism) linked to a murine IgG Fc.
The appropriate number of Daudi cells (350,000/well times the number of wells) is aliquoted and centrifuged at 250×g for 5 minutes at 15° C. The supernatant is removed. One percent cold paraformaldehyde is prepared by diluting the 4% stock from USB (USB US19943) 1:4 with FACS Buffer. FACS Buffer is prepared by adding 2% FBS (Gibco) to Dulbecco's PBS (Invitrogen) (v/v) and sterile filtering with a 0.22 μm filter. FACS Buffer is stored and used at 4° C. […]
Each sample's bound fluorescence is measured on a BD FACSCalibur flow cytometry system and analyzed with Cell Quest Pro software (Becton Dickinson, ver 5.2). The GeoMean fluorescence intensity for each sample is plotted relative to the TRU-016 concentration. […]

Regarding “TRU-016: recombinant single chain protein (SMIP) that binds CD37; G28-1 binding domain, modified hinge, human IgG1 CH2 and CH3; SEQ ID NO: 2”, in the experiment with Ramos cells, the mean survival time entry is on record as “increase mean survival time” and the tumor volume result is recorded as “reduce tumor volume”. The “CD16 binding activity of sera containing TRU-016” value with CD16 (mouse sera at 48, 72, 96 and 192 hours after administration of carbohydrate-modified TRU-016) is listed as “retained its increased CD16 binding activity”.
Consider `O[C@H]1[C@H](O)[C@@H](O)CN2CC[C@H](O)[C@H]12` [castanospermine], for which, in the experiment on CD37 and FcγRIIIa (CD16), the “simultaneous binding of TRU-016 to CD37 and CD16 (GeoMean fluorescence, D-parameter)” value is “dose-dependent binding response”. In addition, the “CD16 binding (mean fluorescence intensity) of Protein A-purified TRU-016” value in the experiment with CD16 (0, 10, 25, 50, 100 or 200 μM castanospermine in culture media) is listed as “dose-dependent increase”.
